How the values were obtained:
Format in all cases: cell-based, mouse
EC d4 [1] = test: ZO1 tight junction immunofluorescence; conditions: EC d4 treated 48 h
mESC [2] = test: Western blot protein expression (densitometry); conditions: mESC 24 h
Procedure: (§1) Total protein cell extracts were obtained upon sonication in RIPA buffer (EpiShearTM Probe sonicator, Active Motif [La Hulpe, Belgium]). Protein concentrations were determined using the DC Protein Assay (BioRad [Munich, Germany]). Extracts were supplemented with Roti®-Load buffer (Carl Roth GmbH [Karlsruhe, Germany]) followed by heating (95 °C for 5 min). 20 µg of protein was separated by SDS-PAGE and transferred onto nitrocellulose membrane. After blocking (5% non-fat milk in TBS/0.1% Tween 20 or 5% BSA in TBS/0.1% Tween 20) (1 h, RT) membrane was incubated with primary antibodies (1:500–5000; overnight, 4 °C). After washing with TBS/0.1% Tween 20, peroxidase-conjugated secondary antibody (1:2000) was added (2 h, RT) and bands were visualized using ChemiDoxTM Touch imaging system (BioRad, Munich, Germany).

[3] = test system: EC d6 (endothelial-like cells); test: Western blot protein expression (densitometry); conditions: EC d6 24 h; for CHK1 protein / RAD51 protein / gH2AX protein / p-CHK2 protein / p-KAP1 protein / p-RPA32 protein / p-p53 protein: Fig 5D
Procedure: as §1

[4] = test system: EC d4 (endothelial progenitor cells); test: Western blot protein expression (densitometry); conditions: EC d4 48 h; for CHK1 protein / RAD51 protein / gH2AX protein / p-CHK2 protein / p-KAP1 protein / p-RPA32 protein / p-p53 protein: Fig 5D
Procedure: as §1

mESC [5] = test: AlamarBlue cell viability; conditions: Mus musculus
Procedure: (§2) Drug-induced cytotoxicity was monitored by analyzing cell viability using the AlamarBlue assay, which measures the reduction of the non-fluorescent dye resazurin (Sigma [Steinheim, Germany]) to fluorescent resorufin by living (i.e. metabolically active) cells. Fluorescence was measured in quadruplicates (excitation: 535 nm, emission: 590 nm (Tecan infinite 200, Tecan, Männedorf, Switzerland)). Relative cell viability of the untreated control was set to 100%.

[6] = test system: EC d4 (endothelial progenitor cells); test: AlamarBlue cell viability; conditions: 48 h treatment
Procedure: as §2

EC d4 [7] = test: EdU incorporation (S-phase activity); conditions: EC d4 48 h
Procedure: S-phase activity of cells was monitored by measuring EdU incorporation using the EdU-Click 488 assay according to the manufacturer’s protocol. Briefly, cells were pulse-treated with 5-ethynyl-2′-deoxyuridine (EdU) for 3 h. Alexa Fluor 488-conjugated reaction cocktail was added (30 min, RT) and nuclei were counterstained with DAPI. The percentage of EdU-positive area/DAPI-positive area was calculated by fluorescence microscopy (Olympus BX43, 20x objective).

EC d6 = test: Mitochondrial membrane potential (TMRM-MitoTracker Green); conditions: EC d6 treated 24 h
Procedure: Mitochondrial membrane potential (ΔΨm) was analyzed by live-cell imaging using TMRM-MitoTracker Green co-staining. Cells were seeded and differentiated on Poly-D-Lysine-fibronectine-coated live-imaging dishes. For staining, cells were incubated with 200nM MitoTracker Green (Invitrogen) and 50 nM TMRM (Invitrogen) in DMEM (30 min, 37 °C, 5% CO2). After washing with PBS, live-cell microscopy was performed using a spinning disc confocal microscope (PerkinElmer) equipped with a 60x oil-immersion objective (N.A = 1.49) and a Hamamatsu C9100 camera (1000 × 1000 pixel) (excitation (MitoTracker Green): 488 nm, excitation (TMRM): 561 nm). The cells were kept at 37 °C in OptiMEM supplemented with 10 mM HEPES during imaging. The images were obtained at emission wavelength of 527 nm (W55) and 615 nm (W70) for 488 nm and 561 nm excitation, respectively.

[8] = Fig 5D, concentration 1 (Dox 1/B02 1/EST 1)
[9] = Fig 5D, concentration 2 (Dox 2/B02 2/EST 2)
[10] = concentration 1 (Dox 1/B02 1/EST 1)
[11] = concentration 2 (Dox 2/B02 2/EST 2)

mitochondrial membrane potential (EC d6): significantly reduced
Compound: COc1cccc2c1C(=O)c1c(O)c3c(c(O)c1C2=O)C[C@@](O)(C(=O)CO)C[C@@H]3O[C@H]1C[C@H](N)[C@H](O)[C@H](C)O1 [Dox, doxorubicin]
ZO1 containing tight junctions in EC d6 differentiated from treated EC d4 (EC d4 [1]): fragmented / interrupted ZO1 containing tight junctions
H3ac protein (mESC [2]; Fig 1D): 0.3 Fold of mESC
H4ac protein (mESC [2]; Fig 1D): 0.0 Fold of mESC
aTubac (acetylated α-Tubulin) protein (mESC [2]; Fig 1D): 0.5 Fold of mESC
CHK1 protein (mESC [2]; Fig 4H, Dox 2): 1.3 Fold of mESC
p-ATR protein (mESC [2]; Fig 4H, Dox 2): 2.7 Fold of mESC
p-CHK1 protein (mESC [2]; Fig 4H, Dox 2): 4.4 Fold of mESC
p-RPA32 protein (mESC [2]; Fig 4H, Dox 2): 1.5 Fold of mESC
p-p53 protein (mESC [2]; Fig 4H, Dox 2): 6.5 Fold of mESC
CHK1 protein (mESC [2]; Fig 4H, Eto, Dox 1, B02, EST): 1.0 Fold of mESC
p-ATR protein (mESC [2]; Fig 4H, Eto, Dox 1, B02, EST): 1.9 Fold of mESC
p-CHK1 protein (mESC [2]; Fig 4H, Eto, Dox 1, B02, EST): 2.4 Fold of mESC
p-RPA32 protein (mESC [2]; Fig 4H, Eto, Dox 1, B02, EST): 1.1 Fold of mESC
p-p53 protein (mESC [2]; Fig 4H, Eto, Dox 1, B02, EST): 6.4 Fold of mESC
CHK1 protein (mESC [2]; [8]): 1.7 Fold of mESC
RAD51 protein (mESC [2]; [8]): 1.2 Fold of mESC
gH2AX protein (mESC [2]; [8]): 69.7 Fold of mESC
p-CHK2 protein (mESC [2]; [8]): 1.1 Fold of mESC
p-KAP1 protein (mESC [2]; [8]): 31.2 Fold of mESC
p-RPA32 protein (mESC [2]; [8]): 1.4 Fold of mESC
p-p53 protein (mESC [2]; [8]): 4.2 Fold of mESC
CHK1 protein (mESC [2]; [9]): 1.8 Fold of mESC
RAD51 protein (mESC [2]; [9]): 0.9 Fold of mESC
gH2AX protein (mESC [2]; [9]): 174.9 Fold of mESC
p-CHK2 protein (mESC [2]; [9]): 1.5 Fold of mESC
p-KAP1 protein (mESC [2]; [9]): 59.9 Fold of mESC
p-RPA32 protein (mESC [2]; [9]): 1.8 Fold of mESC
p-p53 protein (mESC [2]; [9]): 5.7 Fold of mESC
AMPKa protein (mESC [2]; Fig 6E): 0.2 Fold of mESC
GSK3b protein (mESC [2]; Fig 6E): 0.8 Fold of mESC
p-p70SK protein (mESC [2]; Fig 6E): 1.1 Fold of mESC
H3ac protein ([3]; Fig 1D): 0.0 Fold of mESC
H4ac protein ([3]; Fig 1D): 0.0 Fold of mESC
aTubac (acetylated α-Tubulin) protein ([3]; Fig 1D): 0.6 Fold of mESC
CHK1 protein [3, 10]: 1.7 Fold of mESC
RAD51 protein [3, 10]: 1.7 Fold of mESC
gH2AX protein [3, 10]: 4.6 Fold of mESC
p-CHK2 protein [3, 10]: 0.8 Fold of mESC
p-KAP1 protein [3, 10]: 0.0 Fold of mESC
p-RPA32 protein [3, 10]: 0.2 Fold of mESC
p-p53 protein [3, 10]: 4.2 Fold of mESC
CHK1 protein [3, 11]: 1.0 Fold of mESC
RAD51 protein [3, 11]: 1.3 Fold of mESC
gH2AX protein [3, 11]: 31.8 Fold of mESC
p-CHK2 protein [3, 11]: 0.5 Fold of mESC
p-KAP1 protein [3, 11]: 0.0 Fold of mESC
p-RPA32 protein [3, 11]: 0.1 Fold of mESC
p-p53 protein [3, 11]: 3.1 Fold of mESC
AMPKa protein ([3]; Fig 6E): 0.6 Fold of mESC
GSK3b protein ([3]; Fig 6E): 4.3 Fold of mESC
p-p70SK protein ([3]; Fig 6E): 2.8 Fold of mESC
H3ac protein ([4]; Fig 1D): 0.0 Fold of mESC
H4ac protein ([4]; Fig 1D): 0.0 Fold of mESC
aTubac (acetylated α-Tubulin) protein ([4]; Fig 1D): 0.3 Fold of mESC
CHK1 protein [4, 10]: 2.1 Fold of mESC
RAD51 protein [4, 10]: 0.1 Fold of mESC
gH2AX protein [4, 10]: 142.6 Fold of mESC
p-CHK2 protein [4, 10]: 0.7 Fold of mESC
p-KAP1 protein [4, 10]: 0.0 Fold of mESC
p-RPA32 protein [4, 10]: 0.5 Fold of mESC
p-p53 protein [4, 10]: 2.0 Fold of mESC
CHK1 protein [4, 11]: 0.2 Fold of mESC
RAD51 protein [4, 11]: < 0.1 Fold of mESC
gH2AX protein [4, 11]: 44.9 Fold of mESC
p-CHK2 protein [4, 11]: 0.2 Fold of mESC
p-KAP1 protein [4, 11]: 0.0 Fold of mESC
p-RPA32 protein [4, 11]: 0.1 Fold of mESC
p-p53 protein [4, 11]: 2.6 Fold of mESC
AMPKa protein ([4]; Fig 6E): 0.7 Fold of mESC
GSK3b protein ([4]; Fig 6E): 5.7 Fold of mESC
p-p70SK protein ([4]; Fig 6E): 0.5 Fold of mESC
IC50 (mESC [5]; 24 h treatment): 170 nM
IC50 (mESC [5]; 72 h treatment): 9 nM
susceptibility (cell viability) of EC d4 as compared to both mESC and EC d6 [6]: significant higher
S-phase activity (EdU-positive cells) (EC d4 [7]): decrease in S-phase activity
